Data published in PubChem BioAssay (NCI).
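Tested at 5 concentrations; 48 h exposure; 96-well plates; endpoints linearly interpolated, else capped at highest concentration. GI50 is the concentration that inhibits growth by half. The concentration for full growth arrest is given as TGI.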

Legend:
Test in all cases: growth of human tumour cells (NCI), 48 h
HCT-15 colon = system: HCT-15 colon
786-0 renal = system: 786-0 renal
OVCAR-3 ovarian = system: OVCAR-3 ovarian
M14 melanoma = system: M14 melanoma
MCF7 breast = system: MCF7 breast
NCI-H460 lung = system: NCI-H460 lung
A549 NSCLC = system: A549 NSCLC
K-562 leukemia = system: K-562 leukemia
HCC-2998 colon = system: HCC-2998 colon
A498 renal = system: A498 renal
UO-31 renal = system: UO-31 renal
NCI-H226 lung = system: NCI-H226 lung
TK-10 renal = system: TK-10 renal
T-47D breast = system: T-47D breast
HCT-116 colon = system: HCT-116 colon
NCI/ADR-RES ovarian = system: NCI/ADR-RES ovarian
RXF 393 renal = system: RXF 393 renal
HS 578T breast = system: HS 578T breast
HOP-62 NSCLC = system: HOP-62 NSCLC
NCI-H23 lung = system: NCI-H23 lung
NCI-H522 lung = system: NCI-H522 lung
CCRF-CEM leukemia = system: CCRF-CEM leukemia
ACHN renal = system: ACHN renal
HT29 colon = system: HT29 colon
SW-620 colon = system: SW-620 colon
SF-539 CNS = system: SF-539 CNS
SN12C renal = system: SN12C renal
IGROV1 ovarian = system: IGROV1 ovarian
MDA-N = system: MDA-N
RPMI-8226 leukemia = system: RPMI-8226 leukemia
MALME-3M melanoma = system: MALME-3M melanoma
MDA-MB-435 = system: MDA-MB-435
SF-268 CNS = system: SF-268 CNS
DU-145 prostate = system: DU-145 prostate
UACC-257 melanoma = system: UACC-257 melanoma
HOP-92 NSCLC = system: HOP-92 NSCLC
COLO 205 colon = system: COLO 205 colon
MOLT-4 leukemia = system: MOLT-4 leukemia
SR leukemia = system: SR leukemia
SK-OV-3 ovarian = system: SK-OV-3 ovarian
LOX IMVI melanoma = system: LOX IMVI melanoma
CAKI-1 renal = system: CAKI-1 renal
SK-MEL-2 melanoma = system: SK-MEL-2 melanoma
SK-MEL-5 melanoma = system: SK-MEL-5 melanoma
EKVX NSCLC = system: EKVX NSCLC
OVCAR-5 ovarian = system: OVCAR-5 ovarian
KM12 colon = system: KM12 colon
U251 CNS = system: U251 CNS
UACC-62 melanoma = system: UACC-62 melanoma
PC-3 prostate = system: PC-3 prostate
SF-295 CNS = system: SF-295 CNS
SNB-19 CNS = system: SNB-19 CNS
HL-60(TB) leukemia = system: HL-60(TB) leukemia
SK-MEL-28 melanoma = system: SK-MEL-28 melanoma
OVCAR-4 ovarian = system: OVCAR-4 ovarian
BT-549 breast = system: BT-549 breast
MDA-MB-231 breast = system: MDA-MB-231 breast
OVCAR-8 ovarian = system: OVCAR-8 ovarian
SNB-75 CNS = system: SNB-75 CNS

SMILES: CC(=O)OCc1cccc(O)c1C(=O)CCC=C(C)C
- TGI (HCT-15 colon): > 100 µM
- TGI (786-0 renal): > 100 µM
- TGI (OVCAR-3 ovarian): > 100 µM
- TGI (M14 melanoma): > 100 µM
- TGI (MCF7 breast): > 100 µM
- TGI (NCI-H460 lung): > 100 µM
- TGI (A549 NSCLC): > 100 µM
- TGI (K-562 leukemia): > 100 µM
- TGI (HCC-2998 colon): > 100 µM
- TGI (A498 renal): > 100 µM
- TGI (UO-31 renal): > 100 µM
- TGI (NCI-H226 lung): > 100 µM
- TGI (TK-10 renal): > 100 µM
- TGI (T-47D breast): > 100 µM
- TGI (HCT-116 colon): > 100 µM
- TGI (NCI/ADR-RES ovarian): > 100 µM
- TGI (RXF 393 renal): > 100 µM
- TGI (HS 578T breast): > 100 µM
- TGI (HOP-62 NSCLC): > 100 µM
- TGI (NCI-H23 lung): > 100 µM
- TGI (NCI-H522 lung): 56.6 µM
- TGI (CCRF-CEM leukemia): > 100 µM
- TGI (ACHN renal): > 100 µM
- TGI (HT29 colon): > 100 µM
- TGI (SW-620 colon): > 100 µM
- TGI (SF-539 CNS): > 100 µM
- TGI (SN12C renal): > 100 µM
- TGI (IGROV1 ovarian): > 100 µM
- TGI (MDA-N): > 100 µM
- TGI (RPMI-8226 leukemia): > 100 µM
- TGI (MALME-3M melanoma): > 100 µM
- TGI (MDA-MB-435): > 100 µM
- TGI (SF-268 CNS): > 100 µM
- TGI (DU-145 prostate): > 100 µM
- TGI (UACC-257 melanoma): > 100 µM
- TGI (HOP-92 NSCLC): > 100 µM
- TGI (COLO 205 colon): > 100 µM
- TGI (MOLT-4 leukemia): > 100 µM
- TGI (SR leukemia): > 100 µM
- TGI (SK-OV-3 ovarian): > 100 µM
- TGI (LOX IMVI melanoma): > 100 µM
- TGI (CAKI-1 renal): > 100 µM
- TGI (SK-MEL-2 melanoma): > 100 µM
- TGI (SK-MEL-5 melanoma): > 100 µM
- TGI (EKVX NSCLC): > 100 µM
- TGI (OVCAR-5 ovarian): > 100 µM
- TGI (KM12 colon): > 100 µM
- TGI (U251 CNS): > 100 µM
- TGI (UACC-62 melanoma): > 100 µM
- TGI (PC-3 prostate): > 100 µM
- TGI (SF-295 CNS): > 100 µM
- TGI (SNB-19 CNS): > 100 µM
- TGI (HL-60(TB) leukemia): > 100 µM
- TGI (SK-MEL-28 melanoma): > 100 µM
- TGI (OVCAR-4 ovarian): > 100 µM

SMILES: Fc1ccc(-c2ncn(C3CCNCC3)c2-c2ccnc(Oc3ccccc3)n2)cc1
- GI50 (HCT-15 colon): > 22.8 µM
- TGI (HCT-15 colon): > 25 µM
- GI50 (786-0 renal): > 22.5 µM
- TGI (786-0 renal): > 25 µM
- GI50 (OVCAR-3 ovarian): > 25 µM
- TGI (OVCAR-3 ovarian): > 25 µM
- GI50 (M14 melanoma): 9.86 µM
- TGI (M14 melanoma): > 25 µM
- GI50 (MCF7 breast): 9.3 µM
- TGI (MCF7 breast): > 25 µM
- GI50 (NCI-H460 lung): 16.1 µM
- TGI (NCI-H460 lung): > 25 µM
- GI50 (A549 NSCLC): 20.1 µM
- TGI (A549 NSCLC): > 25 µM
- GI50 (K-562 leukemia): 10.8 µM
- TGI (K-562 leukemia): > 25 µM
- GI50 (HCC-2998 colon): 12.8 µM
- TGI (HCC-2998 colon): > 25 µM
- GI50 (A498 renal): > 16.1 µM
- TGI (A498 renal): > 25 µM
- GI50 (UO-31 renal): 7.72 µM
- TGI (UO-31 renal): > 25 µM
- GI50 (NCI-H226 lung): > 25 µM
- TGI (NCI-H226 lung): > 25 µM
- GI50 (TK-10 renal): 21.2 µM
- TGI (TK-10 renal): > 25 µM
- GI50 (T-47D breast): 17.3 µM
- TGI (T-47D breast): > 25 µM
- GI50 (HCT-116 colon): 14.8 µM
- TGI (HCT-116 colon): > 25 µM
- GI50 (NCI/ADR-RES ovarian): > 25 µM
- TGI (NCI/ADR-RES ovarian): > 25 µM
- GI50 (RXF 393 renal): 11.7 µM
- TGI (RXF 393 renal): > 25 µM
- GI50 (HS 578T breast): > 13.1 µM
- TGI (HS 578T breast): > 25 µM
- GI50 (HOP-62 NSCLC): > 25 µM
- TGI (HOP-62 NSCLC): > 25 µM
- GI50 (NCI-H23 lung): > 25 µM
- TGI (NCI-H23 lung): > 25 µM
- GI50 (NCI-H522 lung): > 25 µM
- TGI (NCI-H522 lung): > 25 µM
- GI50 (BT-549 breast): 23 µM
- TGI (BT-549 breast): > 25 µM
- GI50 (CCRF-CEM leukemia): > 23.3 µM
- TGI (CCRF-CEM leukemia): > 25 µM
- GI50 (ACHN renal): 7.22 µM
- TGI (ACHN renal): > 25 µM
- GI50 (HT29 colon): 8.3 µM
- TGI (HT29 colon): > 25 µM
- GI50 (SW-620 colon): > 25 µM
- TGI (SW-620 colon): > 25 µM
- GI50 (SF-539 CNS): > 25 µM
- TGI (SF-539 CNS): > 25 µM
- GI50 (SN12C renal): 18.5 µM
- TGI (SN12C renal): > 25 µM
- GI50 (IGROV1 ovarian): 13.5 µM
- TGI (IGROV1 ovarian): > 25 µM
- GI50 (RPMI-8226 leukemia): > 23.9 µM
- TGI (RPMI-8226 leukemia): > 25 µM
- GI50 (MALME-3M melanoma): 18.4 µM
- TGI (MALME-3M melanoma): > 25 µM
- GI50 (MDA-MB-435): 17.8 µM
- TGI (MDA-MB-435): > 25 µM
- GI50 (SF-268 CNS): > 25 µM
- TGI (SF-268 CNS): > 25 µM
- GI50 (DU-145 prostate): > 25 µM
- TGI (DU-145 prostate): > 25 µM
- GI50 (UACC-257 melanoma): 12.5 µM
- TGI (UACC-257 melanoma): > 25 µM
- GI50 (HOP-92 NSCLC): 5.75 µM
- TGI (HOP-92 NSCLC): > 25 µM
- GI50 (COLO 205 colon): 7.32 µM
- TGI (COLO 205 colon): 18.6 µM
- GI50 (MDA-MB-231 breast): 13.4 µM
- TGI (MDA-MB-231 breast): > 25 µM
- GI50 (MOLT-4 leukemia): 23.4 µM
- TGI (MOLT-4 leukemia): > 25 µM
- GI50 (SR leukemia): 9.17 µM
- TGI (SR leukemia): > 20.1 µM
- GI50 (SK-OV-3 ovarian): 20.1 µM
- TGI (SK-OV-3 ovarian): > 25 µM
- GI50 (LOX IMVI melanoma): > 15.8 µM
- TGI (LOX IMVI melanoma): > 25 µM
- GI50 (CAKI-1 renal): 18.4 µM
- TGI (CAKI-1 renal): > 25 µM
- GI50 (SK-MEL-2 melanoma): > 25 µM
- TGI (SK-MEL-2 melanoma): > 25 µM
- GI50 (SK-MEL-5 melanoma): 4.87 µM
- TGI (SK-MEL-5 melanoma): 14.1 µM
- GI50 (EKVX NSCLC): > 25 µM
- TGI (EKVX NSCLC): > 25 µM
- GI50 (OVCAR-5 ovarian): 22.3 µM
- TGI (OVCAR-5 ovarian): > 25 µM
- GI50 (KM12 colon): > 25 µM
- TGI (KM12 colon): > 25 µM
- GI50 (OVCAR-8 ovarian): > 25 µM
- TGI (OVCAR-8 ovarian): > 25 µM
- GI50 (U251 CNS): 15.2 µM
- TGI (U251 CNS): > 25 µM
- GI50 (UACC-62 melanoma): > 25 µM
- TGI (UACC-62 melanoma): > 25 µM
- GI50 (PC-3 prostate): > 25 µM
- TGI (PC-3 prostate): > 25 µM
- GI50 (SF-295 CNS): 18.2 µM
- TGI (SF-295 CNS): > 25 µM
- GI50 (SNB-19 CNS): > 25 µM
- TGI (SNB-19 CNS): > 25 µM
- GI50 (HL-60(TB) leukemia): > 16.6 µM
- TGI (HL-60(TB) leukemia): > 25 µM
- GI50 (SK-MEL-28 melanoma): 16.9 µM
- TGI (SK-MEL-28 melanoma): > 25 µM
- GI50 (OVCAR-4 ovarian): > 25 µM
- TGI (OVCAR-4 ovarian): > 25 µM
- GI50 (SNB-75 CNS): > 19.3 µM
- TGI (SNB-75 CNS): > 25 µM
